Assay results: US11732240B2, “Direct conversion method of somatic cell into Hepatic stem cell, hepatic cell, or cholangiocyte” (UNIST(ULSAN NATIONAL INSTITUTE OF SCIENCE AND TECHNOLOGY), priority 2016, dated 2023)

What was measured:
hepatocytes = details: 50 mM EtOH for 48 hrs
CYP related genes = assay: qRT-PCR of CYP related genes in induced hepatocytes after drug treatment; type: cell-based, mouse; details: iHep; 25 mM 3-Mc, 1 uM Dex or 50 mM ethanol; 72 hrs; versus DMSO control
Experimental: Total RNA was extracted and cDNA was synthesized in the same method as Example 1. qRT-PCR was performed using synthesized cDNA. mRNA expression of specific genes was confirmed using SYBR Green I Master (Roche, 04887352001) and primers in LightCycler® 480 equipment. The average value was calculated for three analyzes and normalized using Gapdh (5′-[…]-3′ (SEQ ID NO: 94) and 5′-[…]-3′ (SEQ ID NO: 95)). The expression level of mRNA was compared using comparative Ct method. Primer sequences used in qRT-PCR were shown below (sequences below were represented in the 5′ to 3′ direction).
The CYP family members were known to be regulated by aryl hydrocarbon receptor (AhR), constitutive androstane receptor (CAR), pregnane X receptor (PXR), and nuclear receptor which were abundantly found in liver tissue. In order to confirm whether hepatocytes induce CYP when a stimulus was given to such receptors, chemical compounds such as 3-methylcholanthrene (3Mc) which acts on aryl hydrocarbon receptors (Cyp1 family members) and glucocorticoid (Dex, dexamethasone) which acts on glucocorticoid receptors (glucocorticoid receptor regulating CAR and PXR is upstream of Cyp2/3 family members) were treated to receptors.
Specifically, cells were cultured with 60% confluency in HEP medium in which dexamethasone was not added. […]

SMILES	accumulation of fats and droplets in cytoplasm of hepatocytes (hepatocytes)	expression of CYP family genes (mRNA) (CYP related genes)
CCO [ethanol]	accumulation of fats	
Cc1ccc2cc3c(ccc4ccccc43)c3c2c1CC3 [3-methylcholanthrene]		induced
